ChEMBL document CHEMBL1154481, “Pharmacophore modeling of diverse classes of p38 MAP kinase inhibitors” (Eur J Med Chem, 2008)

Assay: Inhibition of p38 MAPK

Row | SMILES | IC50 [nM]
1 | O=c1ccc(-c2c(-c3ccc(F)cc3)nc3ccccn23)nn1-c1c(Cl)cccc1Cl | 49
2 | CC(C)(C)N1CCC(c2cc(-c3ccc(F)cc3Cl)c3c(c2)N(c2c(Cl)cccc2Cl)C(=O)NC3)CC1 | 0.2
3 | Cc1ccccc1Sc1ccc2c(n1)CNC(=O)N2c1c(Cl)cccc1Cl | 110
4 | O=C1NCc2c(-c3ccc(F)cc3Cl)cc(C3CCN(CC4CCC4)CC3)cc2N1c1c(Cl)cccc1Cl | 0.6
5 | Nc1nc(N)c(F)c(-c2nc(-c3cccc(C(F)(F)F)c3)c(-c3ccncc3)[nH]2)c1F | 470
6 | Cc1ccccc1-c1nc(N(C(N)=O)c2c(F)cccc2F)c2ncn(C)c2n1 | 140
7 | Nc1ccn2c(-c3ccncn3)c(-c3ccccc3)nc2n1 | 990
8 | Nc1ccn2c(-c3ccnc(NCc4ccccc4)c3)c(-c3ccc(F)cc3)nc2n1 | 6
9 | Fc1ccc(-c2[nH]c3ccc4[nH]c(Cc5ccccc5)nc4c3c2-c2ccncc2)cc1 | 22
10 | O=C1CCC(c2c(-c3cccc(C(F)(F)F)c3)nc3ccccn23)=NN1c1ccccc1Cl | 170
11 | O=C(c1cccc2[nH]ccc12)N1CCN(Cc2ccccc2)CC1 | 4700
12 | O=C1NCc2nc(Sc3ccccc3)ccc2N1c1c(Cl)cccc1Cl | 270
13 | COC[C@H](C)Nc1cc(-c2c(-c3ccccc3)nc3nc(N)ccn23)ccn1 | 2
14 | O=C1CCC(c2c(-c3ccc(F)cc3F)nc3ccccn23)=NN1c1c(Cl)cccc1Cl | 8

Other lines, results leading:

Row | IC50 [nM] | SMILES
15 | 14 | COc1ccc(C#CC(C)(C)N)cc1C(=O)c1ccc(Nc2ccc(F)cc2F)cc1
16 | 40 | Cc1ccc(NC(=O)c2ccnc(N3CCOCC3)c2)cc1Nc1ccnc(OC2CCN(C)CC2)n1
17 | 200 | CCN(CC)CCCn1ccc2cc(C(=O)N3CCC(Cc4ccccc4)CC3)c(Cl)cc21
18 | 1300 | COc1cc2[nH]ccc2cc1C(=O)N1C[C@H](C)N(Cc2ccccc2)C[C@H]1C
19 | 8 | Cc1ccccc1N1N=C(c2c(-c3ccc(F)cc3F)nc3ccccn23)CCC1=O
20 | 0.5 | O=C1NCc2c(-c3ccc(F)cc3Cl)cc(C3CCN(CC4CC4)CC3)cc2N1c1c(Cl)cccc1Cl
21 | 6600 | O=C(c1ccc2[nH]cc(CN3CCOCC3)c2c1)N1CCC(Cc2ccccc2)CC1
